This passage reports EC50 results from patent US20230250060A1 (IFM Due, Inc., priority 2022, published 2023).

A word on the EC50: it is the midpoint of the concentration-response curve.

In the experiment the target is T1, STING (Homo sapiens, UniProt Q86WV6, G230A/H232R/R293Q/R71H).
T1 construct: host or cells: THP1-Dual KO-IFNAR2 cells
T1 sequence (Q86WV6 whole entry R71H/G230A/H232R/R293Q): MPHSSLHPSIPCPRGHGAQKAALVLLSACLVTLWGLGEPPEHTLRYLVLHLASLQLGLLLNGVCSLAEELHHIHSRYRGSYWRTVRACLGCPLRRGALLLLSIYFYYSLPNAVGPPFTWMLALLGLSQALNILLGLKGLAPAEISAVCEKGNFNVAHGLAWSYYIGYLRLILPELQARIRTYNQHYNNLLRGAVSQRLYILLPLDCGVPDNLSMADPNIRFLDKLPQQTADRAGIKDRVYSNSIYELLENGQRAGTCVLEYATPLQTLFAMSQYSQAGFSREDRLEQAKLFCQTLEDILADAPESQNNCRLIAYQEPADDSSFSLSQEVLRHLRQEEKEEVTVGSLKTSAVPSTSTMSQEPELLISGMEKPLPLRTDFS
The experiment is described as follows: STING reporter assay (luciferase) in THP1-Dual KO-IFNAR2 cells stimulated with 2′3′cGAMP. It is filed as cell-based. The conditions noted are these: 2′3′cGAMP 15 μM final, 24 h, luciferase reporter activity, read-out: Pharmaron, THP1_IFNAR2 STING 24 h Luci Normalized: GeoMean EC50. On the procedure:
STING pathway activation by the compounds described herein was measured using TTIP1-Dual™ cells (KO-IFNAR2).
TTIP1-Dual™ KO-IFNAR2 Cells (obtained from invivogen) were maintained in RPMI, 10% FCS, 5 ml P/S, 2 mM L-glut, 10 mM Hepes, and 1 mM sodium pyruvate. Compounds were spotted in empty 384 well tissue culture plates (Greiner 781182) by Echo for a final concentration of 0.0017-100 μM. Cells were plated into the TC plates at 40 μL per well, 2×10E6 cells/mL. For activation with STING ligand, 2′3′cGAMP (MW 718.38, obtained from Invivogen), was prepared in Optimem media.
The following solutions were prepared for each 1×384 plate: • Solution A: 2 mL Optimem with one of the following stimuli: • […] • Solution B: 2 mL Optimem with […] Lipofectamine 2000→Incubate 5 min at RT
2 mL of solution A and 2 ml Solution B was mixed and incubated for 20 min at room temperature (RT). 20 μL of transfection solution (A+B) was added on top of the plated cells, with a final 2′3′cGAMP concentration of 15 μM. The plates were then centrifuged immediately at 340 g for 1 minute, after which they were incubated at 37° C., 5% CO2, >98% humidity for 24 h. Luciferase reporter activity was then measured. EC50 values were calculated by using standard methods known in the art.
Luciferase reporter assay: 10 μL of supernatant from the assay was transferred to white 384-plate with flat bottom and squared wells. One pouch of QUANTI-Luc™ Plus was dissolved in 25 mL of water. 100 μL of QLC Stabilizer per 25 mL of QUANTI-Luc™ Plus solution was added. 50 μL of QUANTI-Luc™ Plus/QLC solution per well was then added. Luminescence was measured on a Platereader (e.g., Spectramax I3X (Molecular Devices GF3637001)).
Luciferase reporter activity was then measured. EC50 values were calculated by using standard methods known in the art.
Background: A reporter such as luciferase makes a cellular process visible.
Turning to `O=C(Nc1c[nH]c2ccc(OCc3ccc(C(F)(F)F)cc3)cc12)C12CC(C1)C2` [Compound 164, N-(5-((4-(trifluoromethyl)benzyl)oxy)-1H-indol-3-yl)bicyclo[1.1.1]pentane-1-carboxamide], the EC50 lay in the range of 200 to 1000 nM. The value for `O=C(Nc1c[nH]c2ccc(OCc3ccc(C(F)(F)F)cc3)cc12)c1cscn1` [Compound 165, N-(5-((4-(trifluoromethyl)benzyl)oxy)-1H-indol-3-yl)thiazole-4-carboxamide] was 1000 to 5000 nM.

With `O=C(Nc1c[nH]c2ccc(O[C@H]3C[C@@H](c4ccc(C(F)(F)F)cc4)C3)cc12)c1ccncc1` [Compound 166, N-(5-((1s,3s)-3-(4-(trifluoromethyl)phenyl)cyclobutoxy)-1H-indol-3-yl)isonicotinamide], the EC50 lay in the range of 200 to 1000 nM. The value for `O=C(Nc1c[nH]c2ccc(O[C@H]3C[C@@H](c4ccc(C(F)(F)F)cc4)C3)cc12)c1ccn[nH]1` [Compound 167, N-(5-((1s,3s)-3-(4-(trifluoromethyl)phenyl)cyclobutoxy)-1H-indol-3-yl)-1H-pyrazole-5-carboxamide] was 40 to 200 nM; that for `Cn1nccc1C(=O)Nc1c[nH]c2ccc(O[C@H]3C[C@@H](c4ccc(C(F)(F)F)cc4)C3)cc12` [Compound 168, 1-methyl-N-(5-((1s,3s)-3-(4-(trifluoromethyl)phenyl)cyclobutoxy)-1H-indol-3-yl)-1H-pyrazole-5-carboxamide] was 200 to 1000 nM. Next, `O=C(Nc1c[nH]c2ccc(O[C@H]3C[C@@H](c4ccc(C(F)(F)F)cc4)C3)cc12)c1cccnc1` [Compound 169, N-(5-((1s,3s)-3-(4-(trifluoromethyl)phenyl)cyclobutoxy)-1H-indol-3-yl)nicotinamide]: 40 to 200 nM; `O=C(Nc1c[nH]c2ccc(O[C@H]3C[C@@H](c4ccc(C(F)(F)F)cc4)C3)cc12)c1ccccn1` [Compound 170, N-(5-((1s,3s)-3-(4-(trifluoromethyl)phenyl)cyclobutoxy)-1H-indol-3-yl)picolinamide]: 1000 to 5000 nM. As to `CC12CC(C(=O)Nc3c[nH]c4ccc(O[C@H]5C[C@@H](c6ccc(C(F)(F)F)cc6)C5)cc34)(C1)C2` [Compound 171, 3-methyl-N-(5-((1s,3s)-3-(4-(trifluoromethyl)phenyl)cyclobutoxy)-1H-indol-3-yl)bicyclo[1.1.1]pentane-1-carboxamide], the EC50 lay within 200 to 1000 nM. Next, `O=C(Nc1c[nH]c2ccc(O[C@H]3C[C@@H](c4ccc(C(F)(F)F)cc4)C3)cc12)C1CC12CC2` (some centres unmarked) [Compound 172, N-(5-((1s,3s)-3-(4-(trifluoromethyl)phenyl)cyclobutoxy)-1H-indol-3-yl)spiro[2.2]pentane-1-carboxamide]: 200 to 1000 nM; `O=C(Nc1c[nH]c2ccc(O[C@H]3C[C@@H](c4ccc(C(F)(F)F)cc4)C3)cc12)C12CC(C1)C2` [Compound 173, N-(5-((1s,3s)-3-(4-(trifluoromethyl)phenyl)cyclobutoxy)-1H-indol-3-yl)bicyclo[1.1.1]pentane-1-carboxamide]: 200 to 1000 nM; `O=C(Nc1c[nH]c2ccc(O[C@H]3C[C@@H](c4ccc(C(F)(F)F)cc4)C3)cc12)c1ncccc1F` [Compound 174, 3-fluoro-N-(5-((1s,3s)-3-(4-(trifluoromethyl)phenyl)cyclobutoxy)-1H-indol-3-yl)picolinamide]: 200 to 1000 nM. The value for `O=C(Nc1c[nH]c2ccc(O[C@H]3C[C@@H](c4ccc(C(F)(F)F)cc4)C3)cc12)c1nccs1` [Compound 175, N-(5-((1s,3s)-3-(4-(trifluoromethyl)phenyl)cyclobutoxy)-1H-indol-3-yl)thiazole-2-carboxamide] was 200 to 1000 nM. The value for `Cc1oncc1C(=O)Nc1c[nH]c2ccc(O[C@H]3C[C@@H](c4ccc(C(F)(F)F)cc4)C3)cc12` [Compound 176, 5-methyl-N-(5-((1s,3s)-3-(4-(trifluoromethyl)phenyl)cyclobutoxy)-1H-indol-3-yl)isoxazole-4-carboxamide] was 5000 to 100000 nM; that for `Cc1noc(C)c1C(=O)Nc1c[nH]c2ccc(O[C@H]3C[C@@H](c4ccc(C(F)(F)F)cc4)C3)cc12` [Compound 177, 3,5-dimethyl-N-(5-((1s,3s)-3-(4-(trifluoromethyl)phenyl)cyclobutoxy)-1H-indol-3-yl)isoxazole-4-carboxamide] was 40 to 200 nM. Take `O=C(Nc1c[nH]c2ccc(O[C@H]3C[C@@H](c4ccc(C(F)(F)F)cc4)C3)cc12)c1cncs1` [Compound 178, N-(5-((1s,3s)-3-(4-(trifluoromethyl)phenyl)cyclobutoxy)-1H-indol-3-yl)thiazole-5-carboxamide]: the EC50 lay within 200 to 1000 nM. The value for `O=C(Nc1c[nH]c2ccc(OCC[C@@H]3C[C@@H]4CN(CC(F)(F)F)C[C@@H]4C3)cc12)c1ccncc1` [Compound 179, N-(5-(2-((3aR,5r,6aS)-2-(2,2,2-trifluoroethyl)octahydrocyclopenta[c]pyrrol-5-yl)ethoxy)-1H-indol-3-yl)isonicotinamide] was 200 to 1000 nM; that for `O=C(Nc1c[nH]c2ccc(OCC[C@@H]3C[C@@H]4CN(CC(F)(F)F)C[C@@H]4C3)cc12)c1ccn[nH]1` [Compound 180, N-(5-(2-((3aR,5r,6aS)-2-(2,2,2-trifluoroethyl)octahydrocyclopenta[c]pyrrol-5-yl)ethoxy)-1H-indol-3-yl)-1H-pyrazole-5-carboxamide] was 200 to 1000 nM. The value for `Cn1nccc1C(=O)Nc1c[nH]c2ccc(OCC[C@@H]3C[C@@H]4CN(CC(F)(F)F)C[C@@H]4C3)cc12` [Compound 181, 1-methyl-N-(5-(2-((3aR,5r,6aS)-2-(2,2,2-trifluoroethyl)octahydrocyclopenta[c]pyrrol-5-yl)ethoxy)-1H-indol-3-yl)-1H-pyrazole-5-carboxamide] was 200 to 1000 nM; that for `O=C(Nc1c[nH]c2ccc(OCC[C@@H]3C[C@@H]4CN(CC(F)(F)F)C[C@@H]4C3)cc12)c1cccnc1` [Compound 182, N-(5-(2-((3aR,5r,6aS)-2-(2,2,2-trifluoroethyl)octahydrocyclopenta[c]pyrrol-5-yl)ethoxy)-1H-indol-3-yl)nicotinamide] was 200 to 1000 nM; that for `O=C(Nc1c[nH]c2ccc(OCC[C@@H]3C[C@@H]4CN(CC(F)(F)F)C[C@@H]4C3)cc12)c1ccccn1` [Compound 183, N-(5-(2-((3aR,5r,6aS)-2-(2,2,2-trifluoroethyl)octahydrocyclopenta[c]pyrrol-5-yl)ethoxy)-1H-indol-3-yl)picolinamide] was 1000 to 5000 nM.

Turning to `O=C(CC1CC1)Nc1c[nH]c2ccc(OCC[C@@H]3C[C@@H]4CN(CC(F)(F)F)C[C@@H]4C3)cc12` [Compound 184], the EC50 was 200 to 1000 nM. The value for `O=C(Nc1c[nH]c2ccc(OCC[C@@H]3C[C@@H]4CN(CC(F)(F)F)C[C@@H]4C3)cc12)C12CC(F)(C1)C2` [Compound 185, 3-fluoro-N-(5-(2-((3aR,5r,6aS)-2-(2,2,2-trifluoroethyl)octahydrocyclopenta[c]pyrrol-5-yl)ethoxy)-1H-indol-3-yl)bicyclo[1.1.1]pentane-1-carboxamide] was 200 to 1000 nM. In the case of `O=C(Nc1c[nH]c2ccc(OCC[C@@H]3C[C@@H]4CN(CC(F)(F)F)C[C@@H]4C3)cc12)C12CC(C1)C2` [Compound 186, N-(5-(2-((3aR,5r,6aS)-2-(2,2,2-trifluoroethyl)octahydrocyclopenta[c]pyrrol-5-yl)ethoxy)-1H-indol-3-yl)bicyclo[1.1.1]pentane-1-carboxamide], the EC50 was 200 to 1000 nM. `O=C(Nc1c[nH]c2ccc(OCC[C@@H]3C[C@@H]4CN(CC(F)(F)F)C[C@@H]4C3)cc12)c1ncccc1F` [Compound 187, 3-fluoro-N-(5-(2-((3aR,5r,6aS)-2-(2,2,2-trifluoroethyl)octahydrocyclopenta[c]pyrrol-5-yl)ethoxy)-1H-indol-3-yl)picolinamide]: the EC50 lay within 1000 to 5000 nM.

For the compound `O=C(Nc1c[nH]c2ccc(OCC[C@@H]3C[C@@H]4CN(CC(F)(F)F)C[C@@H]4C3)cc12)c1nccs1` [Compound 188, N-(5-(2-((3aR,5r,6aS)-2-(2,2,2-trifluoroethyl)octahydrocyclopenta[c]pyrrol-5-yl)ethoxy)-1H-indol-3-yl)thiazole-2-carboxamide], the EC50 was in the range of 200 to 1000 nM. On to `Cc1noc(C)c1C(=O)Nc1c[nH]c2ccc(OCC[C@@H]3C[C@@H]4CN(CC(F)(F)F)C[C@@H]4C3)cc12` [Compound 189, 3,5-dimethyl-N-(5-(2-((3aR,5r,6aS)-2-(2,2,2-trifluoroethyl)octahydrocyclopenta[c]pyrrol-5-yl)ethoxy)-1H-indol-3-yl)isoxazole-4-carboxamide], for which the EC50 fell in the range of 200 to 1000 nM.
